Data: paper PMC6052416, “Selective inhibition of carbonic anhydrase-IX by sulphonamide derivatives induces pH and reactive oxygen species-mediated apoptosis in cervical cancer HeLa cells” (Journal of Enzyme Inhibition and Medicinal Chemistry, 2018)
Read-outs that look alike come from different tables or passages of the source.

How the values were obtained:
[1] = test system: HT-29 (colon adenoma cancer); assay: WST-1 cytotoxicity, HT-29; format: cell-based, human
Procedure: (§1) Cancer and normal cell lines were purchased from ATCC and stored in liquid nitrogen. HT-29 (colon adenoma cancer), HeLa (cervix adenoma cancer cell), MDA-MB-231 (breast adenoma cancer cell), HEK-293 (embryonic kidney epithelial cell) and PNT-1A (normal prostate cells) cell lines were incubated in DMEM: F-12 and RPMI-1640, including 10% foetal bovine serum (FBS), 100 µg/mL streptomycin/100 IU/mL penicillin, at 37 °C in an incubator containing 5% CO2, 95% air in a humid atmosphere.
(§2) The cytotoxic effects of the substances were evaluated with WST-1 kits (Roche, Germany) in accordance with the manufacturer’s protocols. The cells were planted in 96-well plates (10^4 cells in each well). After incubation for 24 h, the media were discarded and the substances and 5-Fu as the control drug, at doses of 0, 2.5, 5, 10, 25, 50, 100 and 200 µM, were incubated for 24, 48 and 72 h. WST-1 reactive of 10 µL was added to all wells. Following 4-h incubation, the measurements were taken on a plate reader (Spectramax M5) at wavelengths of 450 and 630 nm. Graphs were then created and the IC50 value of each substance was calculated.

[2] = test system: PNT-1A (normal prostate cells); assay: WST-1 cytotoxicity, PNT-1A; format: cell-based; details: normal cell
Procedure: as §1, §2

hCA IX = target: hCA IX; set-up: method as in PMID 25913118, PMID 26803577; details: cited from earlier work
HeLa cells [3] = assay: DNA damage γ-H2AX immunofluorescence; format: cell-based, human; details: 24 h, concentration dependent
Procedure: HeLa cells (1 × 10^4/mL) were seeded in 12-well cell culture dishes and after 24 h, they were administered with the sulphonamide derivative compounds at doses of 10–25–50 µM and incubated for 24 h. The cells were washed with PBS and fixed with 100% methanol at −20 °C overnight, which was followed by PBS washing three times for 10 min for each washing. The cells were treated with 0.2% Triton X-100 in a shaker, at room temperature for 5 min. They were washed with PBS, and 1% BSA-containing PBS was then added, and incubation with primary mouse monoclonal anti-γ-H2AX antibody (Cell Signaling Technology, Danvers, MA) was applied at 37 °C for 1 h. The cells were washed with PBS for 5 min three times. Secondary goat anti-mouse Alexa-488-conjugated IgG (Invitrogen, Thermo Fisher Scientific, USA) was administered and the cells were incubated at 37 °C for 20 min, followed by PBS washing for 4–5 min three times. 1 mL 70% EtOH was added and, at +4 °C, released to incubation for 5 min. 1 mL 100% EtOH was added in a shaker, which was then incubated at room temperature for 1–2 min. The nucleus was stained with DAPI and the images were recorded using an Olympus Inverted Fluorescence Microscope (Olympus CKX53, DP73).

HeLa cells [4] = assay: Mitochondrial membrane potential (JC-1); format: cell-based, human; details: JC-1, 0–200 μM, 24 h
Procedure: Mitochondrial membrane potential (MMP) changes appearing in the intrinsic pathway of mitochondria were spectrophotometrically detected. MMP was measured in a fluorometry device (Spectramax, M5), at wavelengths of 490 nm (excitation) and 530 nm(emission) according to the fluorometric Mitochondria Staining Kit (Sigma, Germany, CS0390) protocol.

HeLa cells [5] = assay: Intracellular pH, extracellular pH and lactate level; format: cell-based, human
Procedure: Intracellular PH was measured according to the protocol of the fluorometric intracellular pH assay kit (Sigma, Germany, MAK-150). Fluorescent BCFL-AM indicator that was able to pass through the cell membrane was used to measure pHi fluctuations in the fluorometric intracellular pH kit. BCFL-AM was utilised to measure the reductions in pHi of the cells that had been treated by various conditions. The cells were planted in black plates, as 6 × 10^4 in each well of the plate, and incubated for 24 h. The medium was replaced with BCFL-AM reagent which had been prepared in 100 µL of HBS solution (Hank’s buffer with 20 mM HEPES, 5 mM probenecid), then the cells were incubated at 37 °C in an atmosphere of 5% CO2 for 30 min (protected from light). Sulphonamide compound at doses of 0, 10, 25 and 50 µM was added to the HBS solution. In the next 5 min, the measurement was performed at wavelengths of 490 nm (excitation) and 535 nm (emission) in spectrofluorimetry (Spectramax, M5). Extracellular pH (pHe) and lactate levels were measured with commercial kit by the blood gas device (ABL90 FLEX PLUS, Radiometer, Copenhagen, Denmark) which is routinely used in the clinical biochemistry laboratory of hospital. After the application of the substance in this method, the media were analysed directly by the device.

HeLa cells [6] = assay: Western blot of apoptosis proteins and CA IX; format: cell-based, human; details: 24 h
Procedure: The cells were seeded on 6 cm^2 cell culture dishes and treated with sulphonamide compounds, at doses of 10–25–50 µM, for 24 h. The cells were then washed with cold PBS, which was followed by lysis with RIPA lysis buffer (10 mM Tris-HCl pH = 8, 1 mM EDTA, 1 mM EGTA, 140 mM NaCl, 1% Triton X-100, 0.1 SDS, 0.1% sodium deoxycholate), 1X phosphates and protease inhibitor (Santa Cruz Biotechnology, Dallas, USA). The acquired supernatants from the lysates which were centrifuged at 12,000 g, + 4 °C, for 10 min, were transferred to new tubes. Protein concentration was detected using the protein assay kit BCA (Thermo Fisher Scientific, Waltham, MA). After a 30-min period of protein (50 µg) standing in 10% SDS–PAGE gel at 50 V and at 80 V for 3 h, those were blotted to PVDF membrane at 70 V for 5 min (Bio-Rad Turbo Transfer System). After embedding in 1X TBST (12.1 g Tris, pH 7.5, 70 g NaCl, 0.1% Tween-20) containing 5% dry milk or 5% BSA, the primer monoclonal antibodies shown in Table 2 were applied to the membrane and left overnight, which was followed by washing with 1 X TBS-T and an incubation period with secondary antibodies of HRP rabbit or mouse (1/10.000) for 60 min. The membrane was again washed with 1 X TBS-T. For band imaging, ECL substrate (EMD Millipore Corp., Billerica, MA) was added and observations were made via the imaging system (LI-COR Odyssey Fc).

SMILES: NS(=O)(=O)c1ccc(CCN=Cc2cc(Br)ccc2O)cc1 [Compound 1]
- IC50 ([1]; WST-1, 24 h, read-out: IC50 HT-29 24 h): 46.1 ± 5.4 µM
- IC50 ([1]; WST-1, 48 h, read-out: IC50 HT-29 48 h): 43.8 ± 1.2 µM
- IC50 ([1]; WST-1, 72 h, read-out: IC50 HT-29 72 h): 108 ± 34.5 µM
- IC50 ([2]; WST-1, 48 h, read-out: IC50 PNT-1A 48 h): 86.2 ± 12.1 µM
- IC50 ([2]; WST-1, 72 h, read-out: IC50 PNT-1A 72 h): 197 ± 11.2 µM
- Ki (hCA IX): 0.187 µM
- DNA damage (γ-H2AX foci) (HeLa cells [3]): increasing γ-H2AX focus points
- mitochondrial membrane potential (MMP) (HeLa cells [4]): reduced in a dose-dependent manner
- lactate level of media (HeLa cells [5]; HeLa cell media): significant dose-related fall
- pHe (HeLa cells [5]; HeLa cell media): significant increase
- pHi (HeLa cells [5]; HeLa, 0, 10, 25 and 50 µM): significant dose-related fall
- CA IX protein expression (HeLa cells [6]; HeLa, 50μM): increase
- cleaved caspase-8 level (HeLa cells [6]; HeLa, 50μM): increase
- cleaved caspase-9 level (HeLa cells [6]; HeLa, 10, 25, 50 µM): increase
- cleaved caspase-3 level (HeLa cells [6]; HeLa): significantly increased
- cleaved-PARP level (HeLa cells [6]; HeLa): increase
